Laboratory results reported in ChEMBL document CHEMBL1909046, “DrugMatrix in vitro pharmacology data”.

Experiments:
Glycine receptor = Glycine receptor (Rattus norvegicus, UniProt P22771+P24524+P07727+P20781); assay type: cell membranes, Wistar, Spinal cord, Membrane; further: in other assays of this panel Not Active means under 50% inhibition at 10 µM
[1] = DRUGMATRIX: Phosphodiesterase PDE4 enzyme inhibition (substrate: [3H]cAMP + cAMP); details: u-937; Not Active = under 50% inhibition at 10 µM
[2] = target: T1, Angiotensin-converting enzyme (Oryctolagus cuniculus, UniProt P12822); assay: biochemical; assay type: tissue-based, Lung;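 further: enzymatic inhibition of angiotensin-converting enzyme measured with FAPGG as the substrate; in other assays of this panel Not Active means under 50% inhibition at 10 µM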
T1 sequence (P12822 whole entry): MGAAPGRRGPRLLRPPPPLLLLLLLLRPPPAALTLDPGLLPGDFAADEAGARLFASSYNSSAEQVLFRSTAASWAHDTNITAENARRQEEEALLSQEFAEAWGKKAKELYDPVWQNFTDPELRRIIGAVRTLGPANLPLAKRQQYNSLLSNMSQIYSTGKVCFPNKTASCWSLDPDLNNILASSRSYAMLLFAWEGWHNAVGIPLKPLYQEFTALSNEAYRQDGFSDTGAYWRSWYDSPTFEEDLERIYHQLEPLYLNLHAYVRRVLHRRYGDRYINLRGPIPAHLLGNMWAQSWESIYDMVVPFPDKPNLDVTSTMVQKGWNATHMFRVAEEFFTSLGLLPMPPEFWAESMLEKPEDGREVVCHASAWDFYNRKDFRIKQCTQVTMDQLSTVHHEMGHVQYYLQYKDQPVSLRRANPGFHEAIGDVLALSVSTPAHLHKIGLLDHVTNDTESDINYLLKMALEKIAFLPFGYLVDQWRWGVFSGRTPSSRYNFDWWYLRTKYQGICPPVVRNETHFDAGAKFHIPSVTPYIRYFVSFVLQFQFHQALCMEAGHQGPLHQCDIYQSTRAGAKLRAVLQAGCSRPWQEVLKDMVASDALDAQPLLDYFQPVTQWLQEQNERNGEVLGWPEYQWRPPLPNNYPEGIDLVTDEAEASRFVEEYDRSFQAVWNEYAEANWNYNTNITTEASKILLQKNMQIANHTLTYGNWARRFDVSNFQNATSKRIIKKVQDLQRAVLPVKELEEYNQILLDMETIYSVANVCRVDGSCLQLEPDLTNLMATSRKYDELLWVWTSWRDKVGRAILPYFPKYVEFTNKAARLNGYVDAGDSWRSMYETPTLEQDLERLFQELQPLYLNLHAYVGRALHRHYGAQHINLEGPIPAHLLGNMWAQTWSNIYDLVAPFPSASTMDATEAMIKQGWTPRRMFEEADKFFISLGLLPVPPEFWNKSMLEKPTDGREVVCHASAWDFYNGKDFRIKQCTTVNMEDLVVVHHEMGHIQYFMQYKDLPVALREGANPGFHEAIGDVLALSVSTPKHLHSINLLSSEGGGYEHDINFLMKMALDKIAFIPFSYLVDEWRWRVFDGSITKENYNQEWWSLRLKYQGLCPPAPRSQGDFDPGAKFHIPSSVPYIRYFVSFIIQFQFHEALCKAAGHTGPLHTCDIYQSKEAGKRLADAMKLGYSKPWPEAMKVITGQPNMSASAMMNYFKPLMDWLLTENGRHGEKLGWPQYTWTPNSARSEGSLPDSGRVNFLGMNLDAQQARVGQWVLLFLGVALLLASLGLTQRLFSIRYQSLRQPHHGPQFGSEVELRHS

Interstitial collagenase = target: T2, Interstitial collagenase (Homo sapiens, UniProt P03956); assay: biochemical; assay type: tissue-based, Rheumatoid synovial fibroblasts;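 further: MMP-1 enzyme inhibition assay using a peptide substrate; in other assays of this panel Not Active means under 50% inhibition at 10 µM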
T2 sequence (P03956 whole entry): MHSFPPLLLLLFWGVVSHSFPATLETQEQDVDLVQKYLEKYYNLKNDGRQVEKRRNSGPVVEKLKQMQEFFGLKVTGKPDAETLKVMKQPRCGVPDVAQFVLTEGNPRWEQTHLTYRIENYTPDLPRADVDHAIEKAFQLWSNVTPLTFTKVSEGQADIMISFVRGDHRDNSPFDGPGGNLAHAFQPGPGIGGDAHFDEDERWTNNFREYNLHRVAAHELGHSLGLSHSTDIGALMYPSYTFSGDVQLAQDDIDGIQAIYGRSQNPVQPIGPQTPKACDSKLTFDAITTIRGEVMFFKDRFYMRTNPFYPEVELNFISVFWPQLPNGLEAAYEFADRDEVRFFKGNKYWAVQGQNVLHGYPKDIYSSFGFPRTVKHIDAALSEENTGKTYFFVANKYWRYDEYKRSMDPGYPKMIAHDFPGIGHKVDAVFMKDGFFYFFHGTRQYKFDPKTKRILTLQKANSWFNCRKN

Glucocorticoid receptor = target: T3, Glucocorticoid receptor (Homo sapiens, UniProt P04150); details: hela s3; further: in other assays of this panel Not Active means under 50% inhibition at 10 µM
T3 sequence (P04150 whole entry): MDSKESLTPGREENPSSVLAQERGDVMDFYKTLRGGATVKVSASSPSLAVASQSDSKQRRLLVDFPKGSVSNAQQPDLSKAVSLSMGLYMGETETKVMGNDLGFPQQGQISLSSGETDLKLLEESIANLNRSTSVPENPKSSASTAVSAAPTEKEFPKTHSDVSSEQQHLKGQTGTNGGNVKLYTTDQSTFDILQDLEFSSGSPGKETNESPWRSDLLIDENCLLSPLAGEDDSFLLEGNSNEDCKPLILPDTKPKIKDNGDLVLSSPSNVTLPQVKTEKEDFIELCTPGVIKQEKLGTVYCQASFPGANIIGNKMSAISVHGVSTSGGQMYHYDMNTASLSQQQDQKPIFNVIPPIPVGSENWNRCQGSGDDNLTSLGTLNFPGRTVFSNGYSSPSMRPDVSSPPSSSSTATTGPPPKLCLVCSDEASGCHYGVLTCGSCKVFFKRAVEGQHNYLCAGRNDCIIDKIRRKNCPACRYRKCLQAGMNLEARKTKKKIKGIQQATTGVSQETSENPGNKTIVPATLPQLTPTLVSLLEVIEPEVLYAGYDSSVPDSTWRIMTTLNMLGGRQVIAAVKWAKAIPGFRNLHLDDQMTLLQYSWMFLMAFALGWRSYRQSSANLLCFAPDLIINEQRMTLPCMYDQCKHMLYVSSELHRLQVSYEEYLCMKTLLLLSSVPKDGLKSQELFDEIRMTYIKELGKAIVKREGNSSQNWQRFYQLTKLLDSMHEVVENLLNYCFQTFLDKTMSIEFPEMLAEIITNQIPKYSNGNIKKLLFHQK

C[C@H]1C[C@H]2[C@@H]3CCC4=CC(=O)C=C[C@]4(C)[C@@]3(F)[C@@H](O)C[C@]2(C)[C@@]1(O)C(=O)CO [BETAMETHASONE]
Not Active: IC50 (Glycine receptor) | IC50 [1] | Ki [1] | IC50 [2] | IC50 (Interstitial collagenase)

CC(C)NCC(O)COc1ccc(CC(N)=O)cc1 (stereo unspecified) [ATENOLOL]
Not Active: IC50 (Glycine receptor) | IC50 [1] | Ki [1] | IC50 [2] | IC50 (Interstitial collagenase)

O=C1c2ccccc2C(=O)C1c1ccccc1 [PHENINDIONE]
Not Active: IC50 (Glycine receptor) | IC50 [1] | Ki [1] | IC50 [2] | IC50 (Interstitial collagenase) | IC50 (Glucocorticoid receptor)

CCCCCCNC(=O)n1cc(F)c(=O)[nH]c1=O [CARMOFUR]
Not Active: IC50 (Glycine receptor) | IC50 [1] | Ki [1] | IC50 [2] | IC50 (Interstitial collagenase) | IC50 (Glucocorticoid receptor)

O=c1[nH]cnc2c1ncn2[C@H]1CC[C@@H](CO)O1 [DIDANOSINE]
Not Active: IC50 (Glycine receptor) | IC50 [1] | Ki [1] | IC50 [2] | IC50 (Interstitial collagenase) | IC50 (Glucocorticoid receptor)

CC(=O)Nc1ccc2c(c1)Cc1ccccc1-2 [2-ACETYLAMINOFLUORENE]
Not Active: IC50 (Glycine receptor) | IC50 [1] | Ki [1] | IC50 [2] | IC50 (Interstitial collagenase) | IC50 (Glucocorticoid receptor)

CC(C)(c1ccc(O)cc1)c1ccc(O)cc1 [BISPHENOL A]
Not Active: IC50 (Glycine receptor) | IC50 [1] | Ki [1] | IC50 [2] | IC50 (Interstitial collagenase)

CO[C@H]1O[C@@H]2O[C@@]3(C)CC[C@H]4[C@H](C)CC[C@@H]([C@H]1C)[C@@]24OO3
Not Active: IC50 (Glycine receptor) | IC50 [1] | Ki [1] | IC50 [2] | IC50 (Interstitial collagenase) | IC50 (Glucocorticoid receptor)

C#C[C@]1(O)CC[C@H]2[C@@H]3CCC4=CC(=O)CC[C@@H]4[C@H]3CC[C@@]21C [NORETHINDRONE]
Not Active: IC50 (Glycine receptor) | IC50 [1] | Ki [1] | IC50 [2] | IC50 (Interstitial collagenase)

CN(Cc1cc(Br)cc(Br)c1N)C1CCCCC1 [BROMHEXINE]
Not Active: IC50 (Glycine receptor) | IC50 [1] | Ki [1] | IC50 [2] | IC50 (Interstitial collagenase) | IC50 (Glucocorticoid receptor)

O=C(O)COC(=O)Cc1ccccc1Nc1c(Cl)cccc1Cl [ACECLOFENAC]
Not Active: IC50 (Glycine receptor) | IC50 [1] | Ki [1] | IC50 [2] | IC50 (Interstitial collagenase)

O=C(O)CO [GLYCOLIC ACID]
Not Active: IC50 (Glycine receptor) | IC50 [1] | Ki [1] | IC50 [2] | IC50 (Interstitial collagenase)

CC[C@H]1OC(=O)[C@H](C)[C@@H](O[C@H]2C[C@@](C)(OC)[C@@H](O)[C@H](C)O2)[C@H](C)[C@@H](O[C@@H]2O[C@H](C)C[C@H](N(C)C)[C@H]2O)[C@](C)(O)C[C@@H](C)C(=O)[C@H](C)[C@@H](O)[C@]1(C)O [ERYTHROMYCIN]
Not Active: IC50 (Glycine receptor) | IC50 [1] | Ki [1] | IC50 [2] | IC50 (Interstitial collagenase)

CCC1(c2ccccc2)C(=O)NC(=O)NC1=O [PHENOBARBITAL]
Not Active: IC50 (Glycine receptor) | IC50 [1] | Ki [1] | IC50 [2] | IC50 (Interstitial collagenase)

CCN1C[C@]2(COC)[C@H](O)C[C@H](OC)[C@@]34[C@@H]5C[C@@]6(O)[C@H](OC(=O)c7ccccc7)[C@@H]5[C@@](OC(C)=O)([C@@H]([C@H](OC)[C@H]23)[C@@H]14)[C@@H](O)[C@@H]6OC [ACONITINE]
Not Active: IC50 (Glycine receptor) | IC50 [1] | Ki [1] | IC50 [2] | IC50 (Interstitial collagenase)

CCN1CCN(C(=O)N[C@@H](C(=O)N[C@@H]2C(=O)N3[C@@H]2SC(C)(C)[C@@H]3C(=O)O)c2ccccc2)C(=O)C1=O [PIPERACILLIN]
Not Active: IC50 (Glycine receptor) | IC50 [1] | Ki [1] | IC50 [2] | IC50 (Interstitial collagenase)

O=C(O)c1ccccc1 [BENZOIC ACID]
Not Active: IC50 (Glycine receptor) | IC50 [1] | Ki [1] | IC50 [2] | IC50 (Interstitial collagenase)

CNC[C@H](O)c1ccc(O)c(O)c1 [EPINEPHRINE]
Not Active: IC50 (Glycine receptor) | IC50 [1] | Ki [1] | IC50 [2] | IC50 (Interstitial collagenase)

CC(CN1c2ccccc2Sc2ccccc21)N(C)C (stereo unspecified) [PROMETHAZINE]
Not Active: IC50 (Glycine receptor) | IC50 [1] | Ki [1] | IC50 [2] | IC50 (Interstitial collagenase)

Cl.NC[C@H]1CC[C@H](C(=O)Oc2ccc(CCC(=O)O)cc2)CC1 [CETRAXATE HYDROCHLORIDE]
Not Active: IC50 (Glycine receptor) | IC50 [1] | Ki [1] | IC50 [2] | IC50 (Interstitial collagenase)

O=C(NCCN1CCOCC1)c1ccc(Cl)cc1 [MOCLOBEMIDE]
Not Active: IC50 (Glycine receptor) | IC50 [1] | Ki [1] | IC50 [2] | IC50 (Interstitial collagenase)

Oc1ccccc1 [PHENOL]
Not Active: IC50 (Glycine receptor) | IC50 [1] | Ki [1] | IC50 [2] | IC50 (Interstitial collagenase)

COc1ccc(Cl)cc1C(=O)NCCc1ccc(S(=O)(=O)NC(=O)NC2CCCCC2)cc1 [GLYBURIDE]
Not Active: IC50 (Glycine receptor) | IC50 [1] | Ki [1] | IC50 [2] | IC50 (Interstitial collagenase)

COc1cc(NC(C)CCCN)c2ncccc2c1 (stereo unspecified) [PRIMAQUINE]
Not Active: IC50 (Glycine receptor) | IC50 [1] | Ki [1] | IC50 [2] | IC50 (Interstitial collagenase)

c1ccc2c(c1)Nc1ccccc1S2 [PHENOTHIAZINE]
Not Active: IC50 (Glycine receptor) | IC50 [1] | Ki [1] | IC50 [2] | IC50 (Interstitial collagenase)

C[N+](C)(C)CCOC(N)=O.[Cl-] [CARBACHOL]
Not Active: IC50 (Glycine receptor) | IC50 [1] | Ki [1] | IC50 [2] | IC50 (Interstitial collagenase)

NS(=O)(=O)c1cc(C(=O)O)c(NCc2ccco2)cc1Cl [FUROSEMIDE]
Not Active: IC50 (Glycine receptor) | IC50 [1] | Ki [1] | IC50 [2] | IC50 (Interstitial collagenase)
